Reference: patent US10106542B2, “Substituted 6,7-dihydropyrazolo[1,5-a]pyrazines as negative allosteric modulators of mGluR2 receptors” (Janssen Pharmaceutica NV, priority 2013, dated 2018)

What was measured:
human mGlu2 receptor = molecular target: T1, human mGlu2 receptor (Homo sapiens, UniProt Q14416); assay: [35S]GTPγS binding assay (mGluR2 negative allosteric modulation); type: biochemical
T1 construct: expressed in transfected cells; host or cells: CHO cells (membrane preparation)
Summary of the method: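 Membranes from butyrate-stimulated CHO cells expressing human mGlu2; 7 μg protein in HEPES pH 7.4, 100 mM NaCl, 3 mM MgCl2, 10 μM GDP, 10 μg/ml saponin. Compound tested against EC80-equivalent glutamate; 0.1 nM [35S]GTPγS, 30 min, 30 °C; filtration, scintillation counting. Data as % of control glutamate response.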

[1] = Ro-4-1284 interaction test in rats; type: in vivo, rat; conditions: rat, in vivo, po; read-out: ED50 effect on body temperature immediately before the injection of Ro-4-1284
Method: (§1) 5) Ro-4-1284 Interaction Test in Rats The relative ability of Co. No. 1 to increase palpebral opening was also studied in rats challenged with another monoamines depleting agent, viz. Ro-4-1284 (1.25 mg/kg, s.c.). Effects on body temperature immediately before the injection of Ro-4-1284 were also measured. The cumulative palpebral opening score (every 5 min over a 1-h period) was used for evaluation. The median cumulative palpebral opening in solvent-pretreated control animals (n=70) was 18; a scores >25 occurred in only 1.4% of these control animals and was adopted as all-or-none criterion for drug-induced reversal of the Ro-4-1284-induced palpebral ptose. Co.

rats = assay: Ro-4-1284 interaction test in rats; type: in vivo, rat; conditions: Rattus norvegicus; p.o.; Ro-4-1284 1.25 mg/kg s.c.; cumulative score over 1 h; read-out: ED50 increase of palpebral opening to scores >25 (reversal of Ro-4-1284-induced palpebral ptose)
Method: as §1

[2] = system: rat hippocampal brain slices; assay: Reversal of mGluR2-agonism (LY-354740-depressed fEPSP) in hippocampal brain slices; type: cell-based
Description: 7) Reversal of mGluR2-Agonism in Hippocampal Brain Slices Introduction
Electrophysiology recordings of field excitatory postsynaptic potentials (fEPSPs) in acute hippocampal brain slices represent a model for testing synaptic transmission and plasticity. The effect of Co. No. 1 on synaptic transmission and plasticity in dentate gyms synapses was investigated using this model.
(§2) Recordings of fEPSPs were made from hippocampal brain slices using a multi-electrode array (MEA) biochip, and 3-dimensional-(3D) tip electrodes, according to a standard protocol. These recordings were used to monitor glutamate-mediated synaptic transmission (FIG. 4).

[3] = system: rat hippocampal brain slices; assay: Long-term potentiation in the dentate gyrus of hippocampal brain slices; type: cell-based; conditions: 10 μM
Method: as §2
Subsequently, the effects of Co. No. 1 on synaptic function using long-term potentiation (LTP) protocols in the dentate gyms (Goeldner et. al., Neuropharmacology 2013, 64, 337-346) were evaluated.
Small magnitude LTP (110%) was induced using isolated glutamatergic-mediated fEPSP: trains of theta-burst stimulation that are known to induce LTP at these particular synapses were applied (Dinklo et al., J. Pharmacol. Exp. Ther. 2011, 336(2), 560-574). In the presence of 10 μM Co. No. 1, the magnitude of LTP was enhanced by 150% compared to baseline (p=0.005). […] At the end of the experiments, addition of 1 mM kynurenic acid to block glutamatergic neurotransmission, confirmed that the post-synaptic response is mediated by glutamate neurotransmission.

T1 sequence (Q14416 19-872): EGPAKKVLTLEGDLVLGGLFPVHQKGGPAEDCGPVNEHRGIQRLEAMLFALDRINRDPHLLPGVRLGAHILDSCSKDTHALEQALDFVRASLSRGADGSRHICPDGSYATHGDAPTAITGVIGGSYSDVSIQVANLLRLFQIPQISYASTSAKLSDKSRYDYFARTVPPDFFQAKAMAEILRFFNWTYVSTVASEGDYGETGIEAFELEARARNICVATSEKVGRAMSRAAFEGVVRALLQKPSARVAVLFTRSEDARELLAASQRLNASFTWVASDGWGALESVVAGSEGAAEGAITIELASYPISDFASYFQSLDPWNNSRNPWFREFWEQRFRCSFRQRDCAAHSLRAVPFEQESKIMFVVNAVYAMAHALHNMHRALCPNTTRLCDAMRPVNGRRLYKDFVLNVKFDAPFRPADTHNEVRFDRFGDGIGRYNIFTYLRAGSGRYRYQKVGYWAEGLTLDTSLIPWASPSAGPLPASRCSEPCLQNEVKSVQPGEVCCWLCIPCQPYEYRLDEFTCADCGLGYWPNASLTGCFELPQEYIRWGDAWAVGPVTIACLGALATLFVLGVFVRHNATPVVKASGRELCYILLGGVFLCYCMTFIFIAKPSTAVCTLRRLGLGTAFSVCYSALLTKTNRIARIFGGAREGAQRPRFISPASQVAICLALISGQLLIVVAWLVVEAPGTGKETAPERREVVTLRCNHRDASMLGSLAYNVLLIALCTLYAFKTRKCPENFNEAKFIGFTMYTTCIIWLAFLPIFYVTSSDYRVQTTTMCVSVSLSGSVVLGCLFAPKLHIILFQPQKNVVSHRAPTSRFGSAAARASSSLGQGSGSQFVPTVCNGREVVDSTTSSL

GTPγS - hmGluR2 anGT pIC50 (human mGlu2 receptor; membranes from CHO cells transfected with human mGlu2 receptor, glutamate 60 μM, pIC50 = −log IC50 (M)): 8.05 | Emax (human mGlu2 receptor; relative maximal effect: maximal % inhibition relative to the control glutamate response, read-out: GTPγS - hmGluR2 anGT Emax): 106% | ED50 [1]: > 10 mg/kg
SMILES: Cc1cc(-c2cnn3c2C(=O)N(c2ccc(C(F)(F)F)cc2)C[C@@H]3C)ccn1 [compound 1, (7S)-7-Methyl-3-(2-methylpyridin-4-yl)-5-[4-(trifluoromethyl)phenyl]-6,7-dihydropyrazolo[1,5-a]pyrazin-4(5H)-one]
ED50 (rats): 0.51 mg/kg | paired-pulse ratio (PPR) ([2]; 10 μM Co. No. 1 after LY-354740 1 μM): decrease of the PPR | recovery of the LY-354740-induced depression of fEPSP ([2]; 10 μM, fifteen min after application, LY-354740 1 μM, n=17 slices from 4 rats): 80% | post-theta potentiation (PTP) ([3]; vehicle 120%, p=0.01, 22 slices from 4 SD rats): 160% | magnitude of LTP compared to baseline ([3]; weak theta-burst stimulation, p=0.005, control LTP 110%): 150%
